# Test results: ChEMBL document CHEMBL4017491, “Phthalazino[1,2-b]quinazolinones as p53 Activators: Cell Cycle Arrest, Apoptotic Response and Bak-Bcl-xl Complex Reorganization in Bladder Cancer Cells” (J Med Chem, 2017)
# Experiments:
# T-24 [1] = assay: Induction of apoptosis in human T24 cells assessed as early apoptotic cells at 1 uM by Annexin V-FITC/propidium iodide based flow cytometric analysis (reference value: 1.79%); assay type: functional
# T-24 [2] = assay: Effect on cell cycle distribution in human T24 cells assessed as early apoptotic cells at 1 uM after 1 hr by Annexin V-FITC/propidium iodide staining based FACS analysis relative to control; assay type: functional
compound,measurement,setting,value
CN(C)CCNc1nn2c(=O)c3cc(Br)ccc3nc2c2ccccc12,Activity,T-24 [1],4.22%
same,Activity,T-24 [2],0%
